According to patent publication US9617257B2, “Fused pyridine derivatives useful as c-Met tyrosine kinase inhibitors” (BETA PHARMACEUTICALS CO., LTD., priority 2012, dated 2017):
Read-outs that look alike come from different tables or passages of the source.

How the values were obtained:
Met (h) = target: T1, Met (h) (Homo sapiens, UniProt P08581); assay: Met (h) kinase assay (33P-ATP filter assay, performed by Millipore); assay type: biochemical; settings: 0.2 μM test compound; remaining activity relative to DMSO control set to 100%; duplicate
T1 construct: purchased Millipore
Method: (specific activity approx. 500 cpm/pmol, concentration as required) and 0.2 μM test compound. The reaction is initiated by the addition of the MgATP mix. After incubation for 40 minutes at room temperature, the reaction is stopped by the addition of 3% phosphoric acid solution. 10 μL of the reaction is then spotted onto a P30 filtermat and washed three times for 5 minutes in 75 mM phosphoric acid and once in methanol prior to drying and scintillation counting. This assay is performed by Millipore. The experiment is carried out in duplicate. The value for the control sample (DMSO) was set to 100%, and the values for the compound-treated samples were expressed as activity relative to the control sample.

U87-MG cells = assay: Cellular proliferation analysis (MTS assay), U87-MG; assay type: cell-based; settings: Homo sapiens, U-87 MG, 168 h, read-out: IC50 U87-MG
Method: (§1) Cell proliferation analysis was conducted by the MTS assay protocol. Briefly, U87-MG cells will be cultured in EMEM medium, EBC-1 cells and SNU-5 cells will be cultured in MEM medium, MKN45 cells, NCI-H1975 cells and NCI-H1993 cells will be cultured in RPMI1640 medium, A549 cells will be cultured in McCoy's 5a medium. […] All culture media will be purchased from GIBCO (USA). The cells will be harvested respectively during the logarithmic growth period and counted with hemocytometer. […] Add […] cell suspensions to 96-well plates (triplicates for each cell concentration), the final cell densities are 2×10^4 or 1×10^4 or 5×10^3 cells/well. The density of 5×10^3 cells/well will be used for our first test. The appropriate cell density will be determined and adjusted according to the results of our first test. The next day, dissolve the test article or positive drugs with DMSO or PBS as stock solution. Dispense 2 μl drug solution in 1 ml culture media. Add 200 μl drug media into 96-well plates (triplicate for each drug concentration) after discard the old media. The final concentration of drug will be 0, 0.03, 0.1, 0.3, 1, 3, 10, 30 or 100 μM. The plates will be cultured for another 7 days, then measured by means of MTS assay. Prepare MTS/PMS solution immediately prior to use, pipet 20 μl of the mixture into each well of the 96 well assay plate containing 100 μl culture media. (The final reaction volume is 120 μl). Incubate the plate for 1-4 hours at 37° C. in a humidified, 5% CO2 atmosphere. Record the absorbance at 490 nm using Victor X5 microplate spectrophotometer.

EBC-1 cells = assay: Cellular proliferation analysis (MTS assay), EBC-1; assay type: cell-based; settings: Homo sapiens, read-out: IC50 EBC-1
Method: as §1

MKN45 cells = assay: Cellular proliferation analysis (MTS assay), MKN45; assay type: cell-based; settings: Homo sapiens, MKN-45, 168 h, read-out: IC50 MKN45
Method: as §1

NCI-H1975 cells = assay: Cellular proliferation analysis (MTS assay), NCI-H1975; assay type: cell-based; settings: Homo sapiens, read-out: IC50 NCI-H1975
Method: as §1

A549 cells = assay: Cellular proliferation analysis (MTS assay), A549; assay type: cell-based; settings: Homo sapiens, read-out: IC50 A549
Method: as §1

NCI-H1993 cells = assay: Cellular proliferation analysis (MTS assay), NCI-H1993; assay type: cell-based; settings: Homo sapiens, read-out: IC50 NCI-H1993
Method: as §1

SNU-5 cells = assay: Cellular proliferation analysis (MTS assay), SNU-5; assay type: cell-based; settings: Homo sapiens, SNU-5, 168 h, read-out: IC50 SNU5
Method: as §1

A549 tumors = settings: oral gavage, vs vehicle control
Method: (§2) Human non small cell lung cancer cells A549, human gastric cancer cells MKN45, and human lung squamous cell carcinoma cells EBC-1 are expanded in culture, harvested, and injected subcutaneously onto the right flank of BALB/c nude mice. Testing compound is prepared in an appropriate vehicle and is administered by oral gavage when tumors are established (6-10 days after implant). Tumor response is determined by tumor volume measurement performed twice a week during the course of treatment. Tumor volume inhibition (% growth inhibition) is calculated by comparing treated groups to vehicle control group. Body weight is taken as a general measurement of toxicity.

EBC-1 tumors = settings: oral gavage, vs vehicle control
Method: as §2

MKN45 tumors = settings: oral gavage, vs vehicle control
Method: as §2

[1] = 168 h, EBC-1 cells, 7 days, MTS
[2] = 168 h, NCI-H1975 cells, 7 days, MTS
[3] = 168 h, NCI-H1993 cells, 7 days, MTS

T1 sequence (P08581 25-1390): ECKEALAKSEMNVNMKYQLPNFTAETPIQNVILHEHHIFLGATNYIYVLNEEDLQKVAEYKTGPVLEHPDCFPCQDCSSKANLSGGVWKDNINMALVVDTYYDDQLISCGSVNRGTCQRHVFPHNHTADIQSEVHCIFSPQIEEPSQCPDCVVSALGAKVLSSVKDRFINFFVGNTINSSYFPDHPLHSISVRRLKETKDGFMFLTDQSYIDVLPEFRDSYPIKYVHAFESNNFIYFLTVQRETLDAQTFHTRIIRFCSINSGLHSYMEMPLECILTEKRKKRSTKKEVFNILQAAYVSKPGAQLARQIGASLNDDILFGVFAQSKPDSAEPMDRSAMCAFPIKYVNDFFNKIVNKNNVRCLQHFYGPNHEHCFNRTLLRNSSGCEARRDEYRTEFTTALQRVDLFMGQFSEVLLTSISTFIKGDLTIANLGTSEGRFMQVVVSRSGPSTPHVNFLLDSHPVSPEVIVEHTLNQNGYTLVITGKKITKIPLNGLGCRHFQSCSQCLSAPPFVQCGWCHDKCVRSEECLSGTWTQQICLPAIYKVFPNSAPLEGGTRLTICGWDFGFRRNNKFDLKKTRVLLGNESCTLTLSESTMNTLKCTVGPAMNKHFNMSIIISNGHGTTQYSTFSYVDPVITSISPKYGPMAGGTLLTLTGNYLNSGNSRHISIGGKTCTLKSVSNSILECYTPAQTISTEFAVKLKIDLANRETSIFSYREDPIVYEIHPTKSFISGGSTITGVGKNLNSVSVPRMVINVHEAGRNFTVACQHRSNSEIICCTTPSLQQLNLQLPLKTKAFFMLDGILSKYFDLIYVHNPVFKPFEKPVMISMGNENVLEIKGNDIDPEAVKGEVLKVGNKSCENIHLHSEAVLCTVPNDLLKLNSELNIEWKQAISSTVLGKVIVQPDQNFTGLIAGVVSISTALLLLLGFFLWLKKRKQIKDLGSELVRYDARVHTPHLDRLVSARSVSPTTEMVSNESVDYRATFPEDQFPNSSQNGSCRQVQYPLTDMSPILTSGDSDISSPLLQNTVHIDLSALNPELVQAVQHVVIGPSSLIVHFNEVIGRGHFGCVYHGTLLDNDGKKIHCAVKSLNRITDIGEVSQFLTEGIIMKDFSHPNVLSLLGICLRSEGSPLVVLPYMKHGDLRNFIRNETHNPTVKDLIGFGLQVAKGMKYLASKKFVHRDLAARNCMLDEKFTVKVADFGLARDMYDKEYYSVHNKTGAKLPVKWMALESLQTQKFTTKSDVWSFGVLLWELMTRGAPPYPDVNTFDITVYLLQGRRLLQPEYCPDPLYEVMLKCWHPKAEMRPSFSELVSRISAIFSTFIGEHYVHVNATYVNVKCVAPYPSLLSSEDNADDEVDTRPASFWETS

SMILES | Activity (control) % (Met (h)) [%] | IC50 (U87-MG cells; U87-MG cells, 7 days, MTS) [µM] | IC50 (MKN45 cells; MKN45 cells, 7 days, MTS) [µM] | IC50 (NCI-H1975 cells; [2]) [µM] | IC50 (A549 cells; 168 h, A549 cells, 7 days, MTS) [µM] | IC50 (NCI-H1993 cells; [3]) [µM] | IC50 (SNU-5 cells; SNU5 cells, 7 days, MTS) [µM] | IC50 (EBC-1 cells; [1]) [µM] | further results
O=C(Nc1ccc(Oc2ccnc3c2CCN3)c(F)c1)c1c[nH]cc(-c2ccc(F)cc2)c1=O [Example 1, N-(4-(2,3-dihydro-1H-pyrrolo[2,3-b]pyridin-4-yloxy)-3-fluorophenyl)-5-(4-fluorophenyl)-4-oxo-1,4-dihydropyridine-3-carboxamide] | 1 | – | – | – | – | – | – | – | IC50 (U87-MG cells): 3.4 µM; IC50 (EBC-1 cells; EBC-1, 168 h): 0.06 µM; IC50 (MKN45 cells): 0.4 µM; IC50 (NCI-H1975 cells; NCI-H1975, 168 h): 13 µM; IC50 (A549 cells; A549, 168 h): 15.4 µM; IC50 (NCI-H1993 cells; NCI-H1993, 168 h): 0.4 µM; IC50 (SNU-5 cells): 0.9 µM; growth inhibition of A549 tumors (A549 tumors; 60 mg/kg (qd x24)): 76.6%; growth inhibition of A549 tumors (A549 tumors; 120 mg/kg (qd x24)): 96.7%; growth inhibition of EBC-1 tumors (EBC-1 tumors; 40 mg/kg (qd x17)): 56.5%; growth inhibition of EBC-1 tumors (EBC-1 tumors; 80 mg/kg (qd x17)): 100%; growth inhibition of MKN45 tumors (MKN45 tumors; 60 mg/kg (qd x22)): 38.9%; growth inhibition of MKN45 tumors (MKN45 tumors; 120 mg/kg (qd x22)): 71.9%
O=C(Nc1ccc(Oc2ccnc3c2OCCN3)c(F)c1)c1c[nH]cc(-c2ccc(F)cc2)c1=O [Example 3, N-(4-(3,4-dihydro-2H-pyrido[3,2-b][1,4]oxazin-8-yloxy)-3-fluorophenyl)-5-(4-fluorophenyl)-4-oxo-1,4-dihydropyridine-3-carboxamide] | 6 | – | – | – | – | – | – | – | IC50 (U87-MG cells): 6.3 µM; IC50 (EBC-1 cells; EBC-1, 168 h): 0.4 µM; IC50 (MKN45 cells): 6.2 µM; IC50 (NCI-H1975 cells; NCI-H1975, 168 h): 14.6 µM; IC50 (A549 cells; A549, 168 h): 20.1 µM; IC50 (NCI-H1993 cells; NCI-H1993, 168 h): 1.5 µM; IC50 (SNU-5 cells): 3.1 µM
Cc1c(C(=O)Nc2ccc(Oc3ccnc4c3OCCN4)c(F)c2)c(=O)n(-c2ccccc2)n1C [Example 20, N-(4-(3,4-dihydro-2H-pyrido[3,2-b][1,4]oxazin-8-yloxy)-3-fluorophenyl)-1,5-dimethyl-3-oxo-2-phenyl-2,3-dihydro-1H-pyrazole-4-carboxamide] | 45 | – | – | – | – | – | – | – | –
O=C(Nc1ccc(Oc2ccnc3c2OCCCN3)cc1)c1c[nH]cc(-c2ccc(F)cc2)c1=O [Example 56, 5-(4-Fluoro-phenyl)-4-oxo-1,4-dihydro-pyridine-3-carboxylic acid [4-(6,7,8,9-tetrahydro-5-oxa-1,9-diaza-benzocyclohepten-4-yloxy)-phenyl]-amide] | 2 | 4.7 | 1.2 | 14.3 | 18.1 | 0.7 | 1.7 | 0.1 | –

Second part, led by results:

Activity (control) % (Met (h)) [%] | IC50 (U87-MG cells; U87-MG cells, 7 days, MTS) [µM] | IC50 (MKN45 cells; MKN45 cells, 7 days, MTS) [µM] | IC50 (NCI-H1975 cells; [2]) [µM] | IC50 (A549 cells; 168 h, A549 cells, 7 days, MTS) [µM] | IC50 (NCI-H1993 cells; [3]) [µM] | IC50 (SNU-5 cells; SNU5 cells, 7 days, MTS) [µM] | SMILES | IC50 (EBC-1 cells; [1]) [µM] | further results
11 | 5.1 | 6.7 | 17.8 | 23.3 | 4.6 | 7.8 | O=C(Nc1ccc(Oc2ccnc3c2CCN3)c(F)c1)c1cccn(-c2ccc(F)cc2)c1=O [Example 7, N-(4-(2,3-dihydro-1H-pyrrolo[2,3-b]pyridin-4-yloxy)-3-fluorophenyl)-1-(4-fluorophenyl)-2-oxo-1,2-dihydropyridine-3-carboxamide] | 9.4 | –
6 | 5.5 | 1.3 | 8.3 | 15.7 | 7.9 | 2.9 | O=C(Nc1ccc(Oc2ccnc3c2OCCN3)cc1)c1cccn(-c2ccc(F)cc2)c1=O [Example 9, N-(4-(3,4-dihydro-2H-pyrido[3,2-b][1,4]oxazin-8-yloxy)phenyl)-1-(4-fluorophenyl)-2-oxo-1,2-dihydropyridine-3-carboxamide] | 0.6 | –
15 | 3.8 | 11.5 | 23.2 | 20.6 | 9.2 | 9.3 | O=C(Nc1ccc(F)cc1)C1(C(=O)Nc2ccc(Oc3ccnc4c3CCN4)c(F)c2)CC1 [Example 12] | 11.1 | –
51 | – | – | – | – | – | – | Cc1c(C(=O)Nc2ccc(Oc3ccnc4c3CCN4)c(F)c2)c(=O)n(-c2ccccc2)n1C [Example 19, N-(4-(2,3-dihydro-1H-pyrrolo[2,3-b]pyridin-4-yloxy)-3-fluorophenyl)-1,5-dimethyl-3-oxo-2-phenyl-2,3-dihydro-1H-pyrazole-4-carboxamide] | – | –
